We go through 24 molecules from patent US11440913B2, “Aminoimidazopyridazines as kinase inhibitors” (BRISTOL-MYERS SQUIBB COMPANY, priority 2017, dated 2022).

Counter-ions that a name gives are not always drawn. Like-named read-outs stand apart in the source and are kept apart here.

Test [1] concerns MLKL phosphorylation in HT29-L23 human colorectal adenocarcinoma cells. The test is described as follows: MLKL Phosphorylation High-Content Assay. Format: cell-based. The following applies: necroptosis induced with TNFα, SMAC mimetic and Z-VAD, 6 h, read-out: pMLKL (IC50). An outline of the steps: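 HT29-L23 cells pretreated 30 min at 37 °C with compound (6.25 to 0.106 μM final), then necroptosis induced with TNFα 35 ng/mL, SMAC mimetic 700 nM and Z-VAD 140 nM for 6 h. Fixed cells immunostained for MLKL pS358 and imaged; IC50 and Ymax from 4-parameter logistic fit.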

Test [2] addresses His-GST-TVMV-hRIPK1(1-324) (Homo sapiens (Human), UniProt Q13546). The test is described as follows: RIPK1 HTRF Binding Assay. The following applies: HTRF binding, 1 h at rt; read-out: RIPK1 (IC50). The procedure, abridged:
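HTRF probe-displacement binding: 1 nM His-GST-TVMV-hRIPK1(1-324) (baculovirus construct), 90.6 nM probe, 0.2 nM anti-GST-Tb in 20 mM HEPES, 10 mM MgCl2, 0.015% Brij-35, 4 mM DTT, 0.05 mg/mL BSA. Incubated 1 h at rt; FRET 520/495 nm ratio, inhibition relative to DMSO-only wells.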
Background: Time-resolved FRET reads energy transfer from a long-lived donor to a nearby acceptor.

Chain of His-GST-TVMV-hRIPK1(1-324) (Q13546 1-324): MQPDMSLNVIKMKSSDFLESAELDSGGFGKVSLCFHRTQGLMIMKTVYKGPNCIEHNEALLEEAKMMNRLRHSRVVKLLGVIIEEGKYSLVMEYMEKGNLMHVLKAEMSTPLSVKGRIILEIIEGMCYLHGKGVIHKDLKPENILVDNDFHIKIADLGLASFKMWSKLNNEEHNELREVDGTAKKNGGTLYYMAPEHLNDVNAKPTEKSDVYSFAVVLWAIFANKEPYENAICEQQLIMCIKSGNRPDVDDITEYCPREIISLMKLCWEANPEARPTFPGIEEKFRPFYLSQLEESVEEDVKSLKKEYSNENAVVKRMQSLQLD

As usually defined, the IC50 is the concentration at which inhibition is half-maximal. On to `COc1ncc(-c2ccc3nc(NC(C)=O)cn3n2)cc1C(=O)NCc1ccc(F)c(F)c1OC(C)C1CC1` (stereo not drawn) [Example 131, N-{[2-(1-cyclopropylethoxy)-3,4-difluorophenyl]methyl}-5-{2-acetamidoimidazo[1,2-b]pyridazin-6-yl}-2-methoxypyridine-3-carboxamide], for which the IC50 in test [1] came to 481 nM; in test [2] it was 79 nM.
The corresponding values for `COc1ncc(-c2ccc3nc(NC(C)=O)cn3n2)cc1C(=O)NCc1ccc(F)c(F)c1OC(C)C1CC1` (stereo not drawn) [Example 132, N-{[2-(1-cyclopropylethoxy)-3,4-difluorophenyl]methyl}-5-{2-acetamidoimidazo[1,2-b]pyridazin-6-yl}-2-methoxypyridine-3-carboxamide] are 64 nM and 10 nM.
For the molecule `COc1ncc(-c2ccc3nc(NC(C)=O)cn3n2)cc1C(=O)NC(C)c1cc(F)cc(F)c1OCC1CC1` (stereo not drawn) [Example 133, N-{1-[2-(cyclopropylmethoxy)-3,5-difluorophenyl]ethyl}-5-{2-acetamidoimidazo[1,2-b]pyridazin-6-yl}-2-methoxypyridine-3-carboxamide], the IC50 in test [1] worked out at 8 nM; in test [2] it was 23 nM.
The like results for `COc1ncc(-c2ccc3nc(NC(C)=O)cn3n2)cc1C(=O)NCc1cccc(F)c1OC(C)C1CC1` (stereo not drawn) [Example 134, N-{[2-(1-cyclopropylethoxy)-3-fluorophenyl]methyl}-5-{2-acetamidoimidazo[1,2-b]pyridazin-6-yl}-2-methoxypyridine-3-carboxamide] were, in that order, 28 nM and 18 nM.
The like results for `COc1ncc(-c2ccc3nc(NC(C)=O)cn3n2)cc1C(=O)NCc1cccc(F)c1OC(C)C1CC1` (stereo not drawn) [Example 135, N-{[2-(1-cyclopropylethoxy)-3-fluorophenyl]methyl}-5-{2-acetamidoimidazo[1,2-b]pyridazin-6-yl}-2-methoxypyridine-3-carboxamide] were, in that order, 7 nM and 3 nM.
`COc1ncc(-c2ccc3nc(NC(C)=O)cn3n2)cc1C(=O)NCc1ncccc1OC(C)C1CC1` (stereo not drawn) [Example 136, N-{[3-(1-cyclopropylethoxy)pyridin-2-yl]methyl}-5-{2-acetamidoimidazo[1,2-b]pyridazin-6-yl}-2-methoxypyridine-3-carboxamide]: the values for the half-inhibitory concentration (IC50) in test [1] (Homo sapiens) and in test [2] were 100 nM and 17 nM, respectively.
The like results for `COc1ncc(-c2ccc3nc(NC(C)=O)cn3n2)cc1C(=O)NC(C)c1ccccc1OC(F)(F)F` (stereo not drawn) [Example 137, 5-{2-acetamidoimidazo[1,2-b]pyridazin-6-yl}-2-methoxy-N-{1-[2-(trifluoro-methoxy)phenyl]ethyl}pyridine-3-carboxamide] were, in that order, 14 nM and 7 nM.
The like results for `COc1ncc(-c2ccc3nc(NC(C)=O)cn3n2)cc1C(=O)NCc1cc(F)cc(OC(F)(F)F)c1` [Example 138, 5-{2-acetamidoimidazo[1,2-b]pyridazin-6-yl}-N-{[3-fluoro-5-(trifluoromethoxy)phenyl]methyl}-2-methoxypyridine-3-carboxamide] were, in that order, 72 nM and 13 nM.
Consider `COc1ncc(-c2ccc3nc(NC(C)=O)cn3n2)cc1C(=O)NC(C)c1ccccc1OC(F)(F)F` (stereo not drawn) [Example 139, 5-{2-acetamidoimidazo[1,2-b]pyridazin-6-yl}-2-methoxy-N-{1-[2-(trifluoro-methoxy)phenyl]ethyl}pyridine-3-carboxamide], for which the IC50 was determined as 25 nM in test [1] and 15 nM in test [2].
Regarding `COc1ncc(-c2ccc3nc(NC(C)=O)cn3n2)cc1C(=O)NCc1cc(F)cc(OCC2CC2)c1` [Example 140, N-{[3-(cyclopropylmethoxy)-5-fluorophenyl]methyl}-5-{2-acetamidoimidazo[1,2-b]pyridazin-6-yl}-2-methoxypyridine-3-carboxamide], the values for the IC50 in test [1] (Homo sapiens) and in test [2] were 77 nM and 17 nM, respectively.
The corresponding values for `COc1ncc(-c2ccc3nc(NC(C)=O)cn3n2)cc1C(=O)NCc1c(F)ccc(F)c1OC` [Example 141, N-[(3,6-difluoro-2-methoxyphenyl)methyl]-5-{2-acetamidoimidazo[1,2-b]pyridazin-6-yl}-2-methoxypyridine-3-carboxamide] are 256 nM and 97 nM.
The like results for `COc1ncc(-c2ccc3nc(NC(C)=O)cn3n2)cc1C(=O)NCc1ccc(F)c(OCC2CC2)c1` [Example 142, N-{[3-(cyclopropylmethoxy)-4-fluorophenyl]methyl}-5-{2-acetamidoimidazo[1,2-b]pyridazin-6-yl}-2-methoxypyridine-3-carboxamide] were, in that order, 181 nM and 29 nM.
The like results for `COc1ncc(-c2ccc3nc(NC(C)=O)cn3n2)cc1C(=O)N(C)Cc1cccc(OC(F)(F)F)c1` [Example 143, 5-{2-acetamidoimidazo[1,2-b]pyridazin-6-yl}-2-methoxy-N-methyl-N-{[3-(trifluoromethoxy)phenyl]meth-yl}pyridine-3-carboxamide] were, in that order, 4 nM and 8 nM.
In the case of `COc1ncc(-c2ccc3nc(NC(C)=O)cn3n2)cc1C(=O)NCc1cccc(F)c1OC(C)C1CC1` (stereo not drawn) [Example 144, N-{[2-(1-cyclopropylethoxy)-3-fluorophenyl]methyl}-5-{2-acetamidoimidazo[1,2-b]pyridazin-6-yl}-2-methoxypyridine-3-carboxamide], the 50% inhibitory concentration (IC50) in test [1] and in test [2] was 6 nM each time.
In the case of `COc1ncc(-c2ccc3nc(NC(C)=O)cn3n2)cc1C(=O)NCc1cc(OC(F)(F)F)ccc1F` [Example 145, 5-{2-acetamidoimidazo[1,2-b]pyridazin-6-yl}-N-{[2-fluoro-5-(trifluoro-methoxy)phenyl](deutero)methyl}-2-methoxypyridine-3-carboxamide], the IC50 was 27 nM in test [1] and 5 nM in test [2].
For `COc1ncc(-c2ccc3nc(NC(C)=O)cn3n2)cc1C(=O)NCc1cc(C(F)(F)F)ccc1Cl` [Example 147, N-{[2-chloro-5-(trifluoromethyl)phenyl]methyl}-5-{2-acetamidoimidazo[1,2-b]pyridazin-6-yl}-2-methoxypyridine-3-carboxamide], the results for the IC50 in test [1] (Homo sapiens) and in test [2] were 37 nM and 95 nM, respectively.
The like results for `COc1ncc(-c2ccc3nc(NC(C)=O)cn3n2)cc1C(=O)NCc1cc(F)cc(F)c1OC(C)C1CC1` (stereo not drawn) [Example 148, N-{[2-(1-cyclopropylethoxy)-3,5-difluorophenyl]methyl}-5-(2-acetamidoimidazo[1,2-b]pyridazin-6-yl}-2-methoxypyridine-3-carboxamide] were, in that order, 2 nM and 4 nM.
The corresponding values for `COc1ncc(-c2ccc3nc(NC(C)=O)cn3n2)cc1C(=O)NCc1cc(OCC2CC2)ccc1F` [Example 149, N-{[5-(cyclopropylmethoxy)-2-fluorophenyl]methyl}-5-{2-acetamidoimidazo[1,2-b]pyridazin-6-yl}-2-methoxypyridine-3-carboxamide] are 74 nM and 16 nM.
With `COc1ncc(-c2ccc3nc(NC(C)=O)cn3n2)cc1C(=O)NCc1c(F)cc(F)cc1OCC1CC1` [Example 150, N-{[2-(cyclopropylmethoxy)-4,6-difluorophenyl]methyl}-5-{2-acetamidoimidazo[1,2-b]pyridazin-6-yl}-2-methoxypyridine-3-carboxamide], the 50% inhibitory concentration (IC50) in test [1] (Homo sapiens) was found to be 24 nM; in test [2], 18 nM.
As to `COc1ncc(-c2ccc3nc(NC(C)=O)cn3n2)cc1C(=O)NCc1cccc(F)c1OCC1CC1` [Example 151, N-{[2-(cyclopropylmethoxy)-3-fluorophenyl]methyl}-5-{2-acetamidoimidazo[1,2-b]pyridazin-6-yl}-2-methoxypyridine-3-carboxamide, TFA], the IC50 was 6 nM in test [1] and 8 nM in test [2].
For `COc1ncc(-c2ccc3nc(NC(C)=O)cn3n2)cc1C(=O)NCc1ccc(F)cc1OC1CCOCC1` [Example 152, 5-{2-acetamidoimidazo[1,2-b]pyridazin-6-yl}-N-{[4-fluoro-2-(oxan-4-yloxy)phenyl]methyl}-2-methoxypyridine-3-carboxamide], the IC50 in test [1] (Homo sapiens) turned out to be 69 nM; in test [2], 49 nM.
The corresponding values for `[2H]C([2H])(NC(=O)c1cc(-c2ccc3nc(NC(C)=O)cn3n2)cnc1OC)c1cc(F)cc(F)c1OC1CCOCC1` [Example 153, 5-(2-acetamidoimidazo[1,2-b]pyridazin-6-yl)-N-((3,5-difluoro-2-((tetrahydro-2H-pyran-4-yl)oxy)phenyl)methyl-d2)-2-methoxynicotinamide] are 1 nM and 1 nM.
Consider `COc1ncc(-c2ccc3nc(NC(C)=O)cn3n2)cc1C(=O)NCc1cc(OC(F)(F)F)ccc1F` [Example 154, 5-{2-acetamidoimidazo[1,2-b]pyridazin-6-yl}-N-{[2-fluoro-5-(trifluoromethoxy)phenyl]methyl}-2-methoxypyridine-3-carboxamide], for which the IC50 in test [1] (Homo sapiens) came to 15 nM; in test [2] it was 13 nM.
The corresponding values for `COc1ncc(-c2ccc3nc(NC(C)=O)cn3n2)cc1C(=O)NCc1ccccc1OCC1CCC1` [Example 155, N-{[2-(cyclobutylmethoxy)phenyl]methyl}-5-{2-acetamidoimidazo[1,2-b]pyridazin-6-yl}-2-methoxypyridine-3-carboxamide] are 6 nM and 2 nM.
